Data published in article PMC3527569, “Anti-Inflammatory and Vasoprotective Activity of a Retroviral-Derived Peptide, Homologous to Human Endogenous Retroviruses: Endothelial Cell Effects” (PLoS ONE, 2012).
Where “and” joins values, the source holds several entries; their conditions need not be identical. Identical values can stand only once. Where a SMILES comes first, the peptide text is derived from it. Bridges are numbered along the chain shown (N, C = ends). Roman numbers before positions name the chains, in order.

What was measured:
[1] = test system: Adhesion; test: Monocyte adhesion to endothelial cells (HUVEC); assay type: cell-based, human; settings: calcein-labelled PBMC on HUVEC, TNF-α stimulated; peptide 10 nM-100 µM
Experimental: Monocyte Adhesion to Endothelial Cells: To each well of a 96-well tissue culture plate was added 100 µL of HUVEC at 2 x 10^4 cells/ml. The plates were then incubated 48 h at 37°C and 5% CO2. PBMC, prepared as above, were washed once in serum-free RPMI-1640 medium. Calcein-AM (Sigma; St. Louis, MO) was added to a final concentration of 10 µg/ml, the cells incubated 30 min at 37°C, and then washed once with serum-free RPMI-1640. The cells were then washed an additional time with Complete Medium and resuspended to a concentration of 3 x 10^6/ml in Complete Medium. For each concentration of compound to be tested, 200 µL of labeled PBMC was incubated with 200 µL of test compound (2X desired final concentration) in polypropylene tubes. Similarly, for each concentration of compound to be tested, 50 µL of medium was removed from a well of the plated HUVEC and 50 µL of medium containing the test compound (2X desired final concentration) was added. Both tubes and plates were incubated 1 h at 37°C in 5% CO2. All peptides were tested at log10 concentrations of 10 nM to 100 µM. […] The plate was then read on a fluorescent spectrophotometer with filter settings of λ = 485exc/530emi. […] The plate was blotted to remove any media and read again on the fluorescent spectrophotometer. Percent of Maximum Adhesion (% Max. Adh.) was calculated as: […]

[2] = test system: carrageenan-induced DIC; test: Mouse carrageenan-induced DIC model, lethality; assay type: in vivo, mouse (CD-1)
Experimental: (§1) Groups of 10 male CD-1 mice were injected i.p. with 0.25 ml of either vehicle (PBS) or peptide in vehicle at varying times prior to the i.p. injection of 1.0 ml of carrageenan (0.45% [w/v] in PBS; Sigma). In experiments where serum cytokine levels were determined, groups of 5 mice were euthanized at 1-, 2-, 4-, 8-, and 24-h post injection of carrageenan, blood collected by cardiac puncture into heparinized syringes, and the resultant plasma stored at −80°C until assayed by ELISA. […] At 1-, 2-, 4-, and 24-h post injection of carrageenan, five mice from each group were euthanized and heparinized blood samples collected from the heart using heparinized syringes for subsequent determinations of WBC (white blood cell) counts, RBC (red blood cell) counts, or PLT (platelet) counts.

[3] = reason why binding studies were performed at 37°C
[4] = test system: endothelial nitric oxide synthase (eNOS) mRNA; test: RT-PCR of eNOS mRNA in HUVEC; assay type: cell-based, human; settings: data not shown
Experimental: Cells were cultured with various concentrations of test materials, either with or without stimulus, for varying times. The cells were collected, washed and total RNA isolated using the RNeasy Mini Kit (Qiagen; Valencia, CA). Following isolation the RNA was treated with 7 units of DNase I according to the RNase-Free DNase Set (Qiagen; Valencia, CA) protocol. Using these procedures we usually obtained ∼50 µg of total RNA/10^7 cells. cDNA was prepared from the isolated mRNAs and RT-PCR performed on the target cytokines/chemokines/growth factors using appropriate primer pairs and a control primer pair for β-actin (all from R & D Systems; Minneapolis, MN). RT-PCR was generally performed for 30 cycles for β-actin and 35–45 cycles for iNOS and VEGF.

[5] = test system: IL-6; test: Plasma IL-6 in mouse carrageenan DIC model (ELISA); assay type: in vivo, mouse (CD-1); settings: 1 mg (245 nmol) i.p. 18 h before carrageenan, peak at 4 h
Experimental: as §1
(§2) Cytokine measurements of serum samples from MN10021-treated mice were performed by sandwich ELISA assays (R & D systems) according to the manufacturer’s instructions for use of its kits with sera samples.

[6] = test system: blood leukocyte and platelet counts; test: Blood cell counts (WBC, PLT) in mouse carrageenan DIC model; assay type: in vivo, mouse (CD-1); settings: 245 nmol i.p. 18 h before carrageenan
Experimental: as §1

[7] = mice; data not shown
[8] = test system: TNF-α; test: Plasma TNF-α in mouse carrageenan DIC model (ELISA); assay type: in vivo, mouse (CD-1); settings: 1 mg (245 nmol) i.p. 18 h before carrageenan, over 24 h, groups of 5 mice
Experimental: as §1, §2

[9] = test system: paw inflammation; test: Carrageenan-induced paw inflammation in mice; assay type: in vivo, mouse; settings: compared with peritonitis model; data not shown
[10] = test system: inflammatory accumulation of monocytes/macrophages; test: Mouse NaIO4-induced inflammatory peritonitis model; assay type: in vivo, mouse (CD-1); settings: doses as high as 40 µg (10 nmol)
Experimental: Effects of test compounds on the inflammatory accumulation of monocytes/macrophages or neutrophils in vivo were determined using a mouse peritonitis model. Briefly, groups of five 6–8 week old CD-1 outbred mice (Charles River; Raleigh, NC) were injected intraperitoneally (i.p.) with 1.0 ml of a sterile inflammatory stimulus (NaIO4; 5 mM in sterile isotonic saline; Sigma; St. Louis, MO). This procedure results in a dramatic accumulation of neutrophils in the peritoneal cavity which peaks at 6–8 h post injection, followed by an accumulation of monocytes/macrophages which peaks at 48–72 h post injection. Mice were euthanized by CO2 asphyxiation at either 6 h (for neutrophils) or 48 h (for monocyte/macrophages), the peritoneal cavities lavaged with two 10-ml washes of heparinized (10 u/ml; Sigma; St. Louis, MO) HBSS containing 0.1% (w/v) BSA, the washes pooled, and total and differential cells counts determined for each pooled cell suspension. Each test material was evaluated in a group of five mice, each of which was injected subcutaneously in the thigh with 0.2 ml of test material in HBSS 24 h prior to the i.p. injection of the inflammatory stimulus.

Compound	IC50 [1] [µM]	protection in lethal model of carrageenan-induced DIC ([2]; 73 nmol)	mice protected from lethal carrageenan ([2]; 30 µg (7 nmol) i.p. 18 h prior to carrageenan, groups of 10 CD-1 mice)	survival time after carrageenan ([2]; 1 mg (245 nmol) i.p. before i.p. carrageenan, 120 h longest time observed)	solubility at lower temperatures [3]	effect on expression of mRNA for eNOS [4]	block of peak plasma IL-6 response [5]	effect on carrageenan-induced leukocytosis (WBC) [6]	PLT count of treated mice, percent of normal ([6]; over the 24 h period)	time to detection in the blood after s.c. injection [7] [min]	block of carrageenan-induced increase in plasma TNF-α [8]	activity in carrageenan-induced paw inflammation [9]	anti-inflammatory activity in peritonitis model [10]
CC(C)C[C@H](NC(=O)CNC(=O)CNC(=O)[C@H](CCC(=O)O)NC(=O)[C@H](CCCCN)NC(=O)[C@H](CC(C)C)NC(=O)[C@H](Cc1ccccc1)NC(=O)[C@H](CC(C)C)NC(=O)[C@H](CC(C)C)NC(=O)[C@H](CC(=O)O)NC(=O)[C@H](CC(C)C)NC(=O)CNC(=O)[C@H](CCCNC(=N)N)NC(=O)[C@H](CCCNC(=N)N)NC(=O)[C@H](CC(N)=O)NC(=O)[C@H](CCC(N)=O)NC(=O)[C@@H](N)CC(C)C)C(=O)N[C@@H](CSSC[C@H](NC(=O)[C@H](CC(C)C)NC(=O)CNC(=O)CNC(=O)[C@H](CCC(=O)O)NC(=O)[C@H](CCCCN)NC(=O)[C@H](CC(C)C)NC(=O)[C@H](Cc1ccccc1)NC(=O)[C@H](CC(C)C)NC(=O)[C@H](CC(C)C)NC(=O)[C@H](CC(=O)O)NC(=O)[C@H](CC(C)C)NC(=O)CNC(=O)[C@H](CCCNC(=N)N)NC(=O)[C@H](CCCNC(=N)N)NC(=O)[C@H](CC(N)=O)NC(=O)[C@H](CCC(N)=O)NC(=O)[C@@H](N)CC(C)C)C(=O)O)C(=O)O [MN10021] (I: H-LQNRRGLDLLFLKEGGLC-OH / II: H-LQNRRGLDLLFLKEGGLC-OH; disulfide I:18-II:18)	> 100	completely protects	approximately 50%	at least 120 h	insolubility	Neither MN10021 nor DUK0005 affected	about 50%	prevented much of the leukocytosis	approximately 50%	≤ 15	~85% and > 80%	equally active	–
H-LGGEKLFLLDGRNQLC-OH (disulfide (positions not given here)) [MN20050]	> 100	–	–	–	–	–	–	–	–	–	–	–	no anti-inflammatory activity
